The Ki is a measure of affinity in units of concentration, obtained from inhibition or displacement. Read a low Ki as tighter binding. The IC50 is the midpoint of a concentration-inhibition curve. A lower IC50 goes with greater potency in that assay.

The species named for assay [1] is Cavia porcellus. Nature of the assay: Tested for naloxone pA2 activity in guinea pig ileum. The class given is functional.
The target in assay [2] is Mu-type opioid receptor (Cavia porcellus, UniProt P97266). Description: Tested for inhibitory effect on binding of [3H]DAMGO to opioid receptor mu in guinea pig cerebellum membranes. The format is cell membranes, Membrane.
Mu-type opioid receptor, sequence (P97266 whole entry): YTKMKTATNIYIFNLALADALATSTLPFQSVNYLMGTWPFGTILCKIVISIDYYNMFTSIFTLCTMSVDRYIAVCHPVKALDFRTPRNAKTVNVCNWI
Assay [3] concerns the target Kappa-type opioid receptor (Cavia porcellus, UniProt P41144). Nature of the assay: Tested for inhibitory effect on binding of [3H]bremazocine to opioid receptor kappa in guinea pig cerebellum membranes. The format is cell membranes, Membrane.
For assay [4], the target named is Opioid receptors; mu/kappa/delta (Homo sapiens, UniProt P41145+P41143+P35372). Nature of the assay: Tested for opioid receptor agonistic activity in guinea pig ileum. The class given is functional, tissue-based, Cavia porcellus. To be noted: target entry is the homologue from another species.

Kappa-type opioid receptor, sequence (P41144 whole entry): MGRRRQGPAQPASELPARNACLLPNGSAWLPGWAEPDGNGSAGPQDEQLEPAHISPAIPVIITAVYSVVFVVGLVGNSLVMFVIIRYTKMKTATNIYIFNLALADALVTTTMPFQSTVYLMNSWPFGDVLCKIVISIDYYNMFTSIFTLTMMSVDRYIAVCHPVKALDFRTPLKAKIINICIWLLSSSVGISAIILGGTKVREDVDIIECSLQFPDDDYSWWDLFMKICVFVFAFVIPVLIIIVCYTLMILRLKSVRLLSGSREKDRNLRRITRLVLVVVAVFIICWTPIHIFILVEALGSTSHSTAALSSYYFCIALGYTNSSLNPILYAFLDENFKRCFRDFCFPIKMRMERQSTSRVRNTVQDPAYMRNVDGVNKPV

`C=CCN[C@@H](Cc1ccc(O)cc1)C(=O)NCC(=O)NCC(=O)N[C@@H](Cc1ccccc1)C(=O)N[C@@H](CC(C)C)C(=O)N[C@@H](CCCN=C(N)N)C(=O)N[C@@H](CCCN=C(N)N)C(=O)N[C@H](C(=O)N[C@@H](CCCN=C(N)N)C(=O)N1CCC[C@@H]1C(=O)N[C@@H](CCCCN)C(=O)O)[C@@H](C)CC` showed an Activity in assay [1] of 7.6.
Regarding `CC[C@H](C)[C@H](NC(=O)[C@H](CCCN=C(N)N)NC(=O)[C@H](CCCN=C(N)N)NC(=O)[C@H](CC(C)C)NC(=O)[C@H](Cc1ccccc1)NC(=O)CNC(=O)CNC(=O)[C@@H](N)Cc1ccc(O)cc1)C(=O)N[C@@H](CCCN=C(N)N)C(=O)N1CCC[C@@H]1C(=O)N[C@@H](CCCCN)C(=O)O`, the Activity in assay [1] is given as 7.2.
For the compound `C=CCN(CC=C)[C@@H](Cc1ccc(O)cc1)C(=O)NCC(=O)NCC(=O)N[C@@H](Cc1ccccc1)C(=O)N[C@@H](CC(C)C)C(=O)N[C@@H](CCCN=C(N)N)C(=O)N[C@@H](CCCN=C(N)N)C(=O)N[C@H](C(=O)N[C@@H](CCCN=C(N)N)C(=O)N1CCC[C@@H]1C(=O)N[C@@H](CCCCN)C(=O)O)[C@@H](C)CC`, the Ki in assay [2] was 31.7 nM; in assay [3], 3.6 nM. For the same compound, the IC50 in assay [4] came out at 687 nM.
`CC[C@H](C)[C@H](NC(=O)[C@H](CCCN=C(N)N)NC(=O)[C@H](CCCN=C(N)N)NC(=O)[C@H](CC(C)C)NC(=O)[C@H](Cc1ccccc1)NC(=O)CNC(=O)CNC(=O)[C@H](Cc1ccc(O)cc1)NCC1CC1)C(=O)N[C@@H](CCCN=C(N)N)C(=O)N1CCC[C@@H]1C(=O)N[C@@H](CCCCN)C(=O)O` yielded an Activity in assay [1] of 7.3. For the same compound, the results for the Ki in assay [2] and in assay [3] were 9.6 nM and 0.02 nM, respectively. For the same compound, the IC50 in assay [4] stood at 2.16 nM.
Compound `CN1CC[C@]23c4c5ccc(O)c4O[C@H]2[C@@H](O)C=C[C@H]3[C@H]1C5` [MORPHINE] returned an Activity in assay [1] of 8.2.
